The values that follow come from ChEMBL document CHEMBL5370674, “Optimization of mTOR Inhibitors Using Property-Based Drug Design and Free-Wilson Analysis for Improved In Vivo Efficacy” (ACS Med Chem Lett, 2023).

The nature of series [1]: Apparent intrinsic clearance in human liver microsomes. The conditions noted are these: read-out: CLH(app). In kind it is ADME, Microsome.
Series [2] in a line: Toxicity in Balb/c Nu/Nu mouse xenografted with human A549 cells assessed as reduction in body weight at 30 mg/kg, po administrated for 14 days. The arrangement: scale not given: the % may be the effect or the level left. The conditions noted are these: in vivo, 336 h, time 14 day. It is filed as organism-based. (In general: In xenograft studies the graft and the host belong to different species.)

The nature of series [3]: Selectivity ratio of IC50 for inhibition of PI3Kalpha (unknown origin) to IC50 for inhibition of recombinant human GST-tagged mTOR (1360 to 2549 residues) expressed in insect cells.
For series [4], the system named is A549. As to the kind of experiment: Antitumor activity against human A549 cells xenografted in BALB/c Nu/Nu mouse assessed as tumor growth inhibition at 30 mg/kg, po administrated for 14 days relative to control. It is filed as functional. The conditions noted are these: A549, 336 h, time 14 day, read-out: TGI.
A short description of series [5]: Intrinsic clearance in human liver microsomes. The conditions noted are these: read-out: CLH. It is filed as ADME, Microsome. A general note: Microsomes from liver hold many membrane-bound enzymes, among them those of drug oxidation.
Series [6] in a line: Toxicity in Balb/c Nu/Nu mouse xenografted with human A549 cells assessed as reduction in body weight at 2 to 6 mg/kg, po administrated for 14 days. In kind it is organism-based. The arrangement: scale not given: the % may be the effect or the level left. The conditions noted are these: in vivo, 336 h, dose 2-6 mg/kg, time 14 day.
The nature of series [7]: Fraction absorbed in rat at 4 mg/kg, po. It is filed as ADME, organism-based. The conditions noted are these: in vivo, read-out: Fabs.
Series [8] concerns A549. As to the kind of experiment: Antitumor activity against human A549 cells xenografted in BALB/c Nu/Nu mouse assessed as tumor growth inhibition at 2 mg/kg, po administrated for 14 days relative to control. In kind it is functional. The conditions noted are these: A549, 336 h, time 14 day, read-out: TGI.
The next series has as its target Cytochrome P450 2C9 (Homo sapiens, UniProt P11712). As to the kind of experiment: Inhibition of CYP2C9 (unknown origin). It is filed as ADME.
A further series has as its target T1, Cytochrome P450 2C8 (Homo sapiens, UniProt P10632).
T1 sequence (P10632 whole entry): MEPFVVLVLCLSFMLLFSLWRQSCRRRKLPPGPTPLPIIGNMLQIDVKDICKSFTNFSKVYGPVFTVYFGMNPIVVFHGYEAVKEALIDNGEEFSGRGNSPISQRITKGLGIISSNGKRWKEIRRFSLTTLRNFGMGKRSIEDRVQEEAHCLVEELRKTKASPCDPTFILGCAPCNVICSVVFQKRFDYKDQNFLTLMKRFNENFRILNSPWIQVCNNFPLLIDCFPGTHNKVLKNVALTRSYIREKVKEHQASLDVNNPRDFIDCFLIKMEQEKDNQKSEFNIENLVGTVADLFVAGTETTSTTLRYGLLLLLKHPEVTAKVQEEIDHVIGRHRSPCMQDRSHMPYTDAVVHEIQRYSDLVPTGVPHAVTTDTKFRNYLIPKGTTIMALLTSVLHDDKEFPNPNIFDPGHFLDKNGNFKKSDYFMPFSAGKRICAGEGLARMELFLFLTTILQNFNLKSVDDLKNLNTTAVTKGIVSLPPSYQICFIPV
As to the kind of experiment: Inhibition of CYP2C8 (unknown origin). In kind it is ADME.

A further series has as its target Cytochrome P450 2D6 (Homo sapiens, UniProt P10635). As to the kind of experiment: Inhibition of CYP2D6 (unknown origin). In kind it is ADME.
The next series addresses Cytochrome P450 3A4 (Homo sapiens, UniProt P08684). As to the kind of experiment: Inhibition of CYP3A4 (unknown origin). In kind it is ADME.
A further series has as its target Cytochrome P450 2C19 (Homo sapiens, UniProt P33261). As to the kind of experiment: Inhibition of CYP2C19 (unknown origin). In kind it is ADME.
A further series concerns the target T2, Cytochrome P450 1A2 (Homo sapiens, UniProt P05177).
T2 sequence (P05177 whole entry): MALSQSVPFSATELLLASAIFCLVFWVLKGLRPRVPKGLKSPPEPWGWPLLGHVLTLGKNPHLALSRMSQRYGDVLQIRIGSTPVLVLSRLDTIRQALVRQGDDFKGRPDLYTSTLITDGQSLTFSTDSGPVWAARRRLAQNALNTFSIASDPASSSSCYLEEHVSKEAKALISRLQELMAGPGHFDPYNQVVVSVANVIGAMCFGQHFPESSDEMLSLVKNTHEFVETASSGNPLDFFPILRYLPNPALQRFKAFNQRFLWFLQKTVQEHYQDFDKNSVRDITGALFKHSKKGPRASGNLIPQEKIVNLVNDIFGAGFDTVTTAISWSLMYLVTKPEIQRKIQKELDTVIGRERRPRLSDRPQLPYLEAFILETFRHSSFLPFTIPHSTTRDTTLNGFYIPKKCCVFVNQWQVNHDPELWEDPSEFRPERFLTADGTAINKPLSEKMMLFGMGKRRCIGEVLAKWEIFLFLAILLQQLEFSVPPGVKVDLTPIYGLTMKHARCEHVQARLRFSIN
As to the kind of experiment: Inhibition of CYP1A2 (unknown origin). It is filed as ADME.

Chain of Cytochrome P450 3A4 (P08684 whole entry): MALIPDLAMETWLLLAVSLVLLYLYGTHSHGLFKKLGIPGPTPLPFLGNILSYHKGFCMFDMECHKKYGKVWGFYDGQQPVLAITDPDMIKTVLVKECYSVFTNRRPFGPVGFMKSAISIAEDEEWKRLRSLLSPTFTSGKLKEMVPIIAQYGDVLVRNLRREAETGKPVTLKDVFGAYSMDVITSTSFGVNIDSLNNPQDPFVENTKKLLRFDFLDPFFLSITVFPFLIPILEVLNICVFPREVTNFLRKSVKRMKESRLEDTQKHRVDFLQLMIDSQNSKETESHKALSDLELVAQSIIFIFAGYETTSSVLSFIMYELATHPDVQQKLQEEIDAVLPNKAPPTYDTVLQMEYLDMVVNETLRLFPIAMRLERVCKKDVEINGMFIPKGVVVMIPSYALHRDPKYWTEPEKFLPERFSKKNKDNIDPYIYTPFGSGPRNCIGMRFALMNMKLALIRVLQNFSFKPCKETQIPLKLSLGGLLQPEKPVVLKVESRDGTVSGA
Chain of Cytochrome P450 2D6 (P10635 whole entry): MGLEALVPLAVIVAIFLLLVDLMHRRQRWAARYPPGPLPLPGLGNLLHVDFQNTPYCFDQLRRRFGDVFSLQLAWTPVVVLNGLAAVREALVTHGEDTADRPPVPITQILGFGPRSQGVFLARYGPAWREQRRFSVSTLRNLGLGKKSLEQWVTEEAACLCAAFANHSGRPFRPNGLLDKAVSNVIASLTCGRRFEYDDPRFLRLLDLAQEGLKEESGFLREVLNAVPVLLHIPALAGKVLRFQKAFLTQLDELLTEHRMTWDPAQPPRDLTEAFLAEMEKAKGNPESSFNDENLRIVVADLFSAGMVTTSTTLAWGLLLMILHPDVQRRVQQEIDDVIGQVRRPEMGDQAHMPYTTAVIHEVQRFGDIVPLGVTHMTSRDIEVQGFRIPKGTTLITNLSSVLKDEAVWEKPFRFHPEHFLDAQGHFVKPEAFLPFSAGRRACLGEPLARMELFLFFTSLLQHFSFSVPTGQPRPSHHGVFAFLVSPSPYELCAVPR
Chain of Cytochrome P450 2C9 (P11712 whole entry): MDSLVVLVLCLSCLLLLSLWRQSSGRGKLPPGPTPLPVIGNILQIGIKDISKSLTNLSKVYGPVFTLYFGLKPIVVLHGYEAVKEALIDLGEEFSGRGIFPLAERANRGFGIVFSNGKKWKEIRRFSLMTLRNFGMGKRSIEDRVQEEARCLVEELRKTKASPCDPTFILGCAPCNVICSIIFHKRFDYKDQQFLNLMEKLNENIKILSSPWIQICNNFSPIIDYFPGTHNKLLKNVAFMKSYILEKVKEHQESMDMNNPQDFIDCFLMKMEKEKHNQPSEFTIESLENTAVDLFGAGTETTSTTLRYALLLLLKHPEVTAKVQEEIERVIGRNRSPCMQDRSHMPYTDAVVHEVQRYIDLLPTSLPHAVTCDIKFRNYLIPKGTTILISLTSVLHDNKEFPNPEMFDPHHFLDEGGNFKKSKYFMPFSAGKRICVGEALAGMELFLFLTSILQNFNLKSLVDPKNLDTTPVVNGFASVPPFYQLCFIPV
Chain of Cytochrome P450 2C19 (P33261 whole entry): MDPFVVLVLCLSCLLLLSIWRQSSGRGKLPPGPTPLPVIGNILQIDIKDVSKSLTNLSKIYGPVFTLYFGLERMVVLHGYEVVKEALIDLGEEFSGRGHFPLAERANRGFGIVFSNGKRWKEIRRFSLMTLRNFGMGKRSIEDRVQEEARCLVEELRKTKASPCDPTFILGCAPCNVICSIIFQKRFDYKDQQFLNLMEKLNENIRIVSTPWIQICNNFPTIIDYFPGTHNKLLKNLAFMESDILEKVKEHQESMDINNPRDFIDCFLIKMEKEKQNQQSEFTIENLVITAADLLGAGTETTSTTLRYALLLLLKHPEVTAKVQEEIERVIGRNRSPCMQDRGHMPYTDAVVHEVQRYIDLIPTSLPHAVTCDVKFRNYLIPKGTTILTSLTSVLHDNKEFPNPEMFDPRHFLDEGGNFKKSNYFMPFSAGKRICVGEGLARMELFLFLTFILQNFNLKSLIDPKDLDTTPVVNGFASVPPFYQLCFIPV

`CC(=O)N1CCC(N2C(=O)[C@]3(C)COCCN3c3nc(-c4cccc5[nH]ccc45)ncc32)CC1`: in [1], the CLint scaled came to 6 mL/min/kg.
On the same count and under the same terms, to `C[C@@]12COCCN1c1nc(-c3cccc4[nH]ccc34)ncc1N([C@H]1CC[C@@H](O)CC1)C2=O` belongs 6 mL/min/kg.
On to `Cc1ccc(-c2ncc3c(n2)N2CCOC[C@@]2(C)C(=O)N3[C@H]2CC[C@@H](O)CC2)c2cc[nH]c12`, for which, in series [1], the CLint scaled came out at 8 mL/min/kg.
For `COCCCN1C(=O)[C@]2(C)COCCN2c2nc(-c3cnc4[nH]ccc4c3)ncc21`, in series [1], the CLint scaled was determined as 32 mL/min/kg.
As to `C[C@@]12COCCN1c1nc(-c3cnc4[nH]ccc4c3)ncc1N(C1(CCO)CC1)C2=O`, in series [1], the CLint scaled stood at 11 mL/min/kg.
In the case of `Cc1ccc(-c2ncc3c(n2)N2CCOC[C@@]2(C)C(=O)N3[C@H]2CC[C@H](O)CC2)c2cc[nH]c12`, in series [1], the CLint scaled is 6 mL/min/kg.
On to `CC(F)(F)CN1C(=O)[C@]2(C)COCCN2c2nc(-c3ccc(NC(=O)NC4CC4)cc3)ncc21`, for which the Activity in series [2] was below 20%. Further, in series [3], the Ratio IC50 is above 50. In addition, in the series with A549 [4], the inhibition in vivo at 30 mg/kg stood at 100%. For the same molecule, the CLint scaled in series [5] was below 10 mL/min/kg.
In the case of `Cc1cccc2c(-c3ncc4c(n3)N3CCOC[C@@]3(C)C(=O)N4[C@H]3CC[C@@H](O)CC3)c[nH]c12`, the CLint scaled in series [1] was determined as 7 mL/min/kg.
As for `C[C@@]12COCCN1c1nc(-c3cccc4[nH]ccc34)ncc1N([C@H]1CC[C@H](O)CC1)C2=O`, the Activity in series [6] is listed as below 20%. For the same molecule, the Fa in [7] turned out to be 100%. Besides, the inhibition in vivo at 2 mg/kg in the series with A549 [8] turned out to be 100%.
On to `C[C@@]12COCCN1c1nc(-c3cnc4[nH]ccc4c3)ncc1N(C1CCOC1)C2=O` (mixture of isomers), for which the CLint scaled in series [1] turned out to be 12 mL/min/kg.
On to `C[C@@]12COCCN1c1nc(-c3cnc4[nH]ccc4c3)ncc1N(C1CCOCC1)C2=O`, for which, in series [1], the CLint scaled turned out to be 6 mL/min/kg.
For the molecule `Cc1cccc2c(-c3ncc4c(n3)N3CCOC[C@@]3(C)C(=O)N4[C@H]3CC[C@H](O)CC3)c[nH]c12`, in [1], the CLint scaled worked out at 7 mL/min/kg.
Regarding `C[C@@]12COCCN1c1nc(-c3cnc4[nH]ccc4c3)ncc1N(C1CCN(S(C)(=O)=O)CC1)C2=O`, the CLint scaled in series [1] came to 6 mL/min/kg.
As for `C[C@@]12COCCN1c1nc(-c3cccc4[nH]ccc34)ncc1N(C1CCOCC1)C2=O`, the IC50 on Cytochrome P450 2C9, against Cytochrome P450 2C8, on Cytochrome P450 2D6, against Cytochrome P450 3A4, on Cytochrome P450 2C19 and against Cytochrome P450 1A2 was above 40 µM in each case. Besides, the CLint scaled in [1] was 10 mL/min/kg.
Take `Cc1cccc2c(-c3ncc4c(n3)N3CCOC[C@@]3(C)C(=O)N4C3(CCCO)CC3)c[nH]c12`: in series [1], the CLint scaled worked out at 6 mL/min/kg.
